Experimental data from ChEMBL document CHEMBL1124051 (J Med Chem, 1988).

How the values were obtained:
[1] = Partition coefficient (logP); type: physicochemical; conditions: octanol/water
[2] = biological target: Mu-type opioid receptor (Rattus norvegicus) (UniProt P33535); conditions: Brain; Membrane
[3] = biological target: Mu-type opioid receptor (Rattus norvegicus) (UniProt P33535); conditions: Brain; Membrane; remark: listed apart in the source

Chain of Mu-type opioid receptor (Rattus norvegicus) (P33535 whole entry): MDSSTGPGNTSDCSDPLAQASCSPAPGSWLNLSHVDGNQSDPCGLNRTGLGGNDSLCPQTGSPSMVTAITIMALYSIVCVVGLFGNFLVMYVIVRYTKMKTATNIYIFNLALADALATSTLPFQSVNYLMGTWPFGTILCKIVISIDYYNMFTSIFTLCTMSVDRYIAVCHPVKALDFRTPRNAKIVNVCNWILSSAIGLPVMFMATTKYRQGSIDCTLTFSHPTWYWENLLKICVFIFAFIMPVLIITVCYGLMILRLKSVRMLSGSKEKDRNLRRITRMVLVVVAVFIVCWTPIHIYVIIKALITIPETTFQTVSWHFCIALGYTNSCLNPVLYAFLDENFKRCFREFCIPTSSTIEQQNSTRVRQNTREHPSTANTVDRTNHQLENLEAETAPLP

Compound | logP ([1]; read-out: logP) | further results
CN1CCC23c4c5ccc(O)c4OC2C(=O)CCC3(O)C1C5 (configuration not stated) | -0.42 | 
C=CCN1CCC23CCCCC2C1Cc1ccc(O)cc13 (configuration not stated) | 2.14 | Kp [2]: 20.8; KT [3]: 21.6
CN1CCC23c4c5cccc4OC2CCCC3C1C5 (configuration not stated) | 1.35 | 
CN1CCC23c4c5ccc(O)c4OC2C(O)CCC3C1C5 (configuration not stated) | -0.51 | 
CN1CCC23c4c5cccc4OC2C(=O)CCC3C1C5 (configuration not stated) | 0.4 | 
CN1CCC23c4c5cccc4OC2C(=O)CCC3(O)C1C5 (configuration not stated) | -0.23 | 
C=CCN1CCC23c4c5ccc(O)c4OC2C(O)C=CC3C1C5 (configuration not stated) | 1.22 | 
C=CCN1CCC23c4c5cccc4OC2C(O)CCC3C1C5 (configuration not stated) | 0.87 | 
CN1CCC23c4c5cccc4OC2C(O)C=CC3C1C5 (configuration not stated) | 0.3 | 
CN1CC[C@]23c4c5ccc(O)c4O[C@H]2[C@@H](O)C=C[C@H]3[C@H]1C5 |  | Kp [2]: 12.6; KT [3]: 18.8
C=CCN1CCC2(C)c3cc(O)ccc3CC1C2C (stereo in doubt; form 1) |  | logP [1]: 1.58
CC1C2Cc3ccc(O)cc3C1(C)CCN2Cc1ccoc1 (stereo in doubt; form 1) | 2.25 | 
CC1C2Cc3ccc(O)cc3C1(C)CCN2Cc1ccco1 (stereo in doubt; form 1) |  | logP [1]: 2.49
C=CCN1CCC2(C)c3cc(O)ccc3CC1C2C (stereo in doubt; form 2) | 1.73 | 
CC1C2Cc3ccc(O)cc3C1(C)CCN2Cc1ccoc1 (stereo in doubt; form 2) |  | logP [1]: 2
CC1C2Cc3ccc(O)cc3C1(C)CCN2Cc1ccco1 (stereo in doubt; form 2) | 2.68 | 
COc1ccc2c3c1O[C@H]1[C@@H](O)C=C[C@H]4[C@@H](C2)N(C)CC[C@@]341 [CODEINE] | 0.25 | Kp [2]: 11.4; KT [3]: 13.3
C[C@H]1[C@H]2Cc3ccc(O)cc3[C@]1(C)CCN2CC1CC1 [CYCLAZOCINE] |  | logP [1]: 0.97
CN1CC[C@]23CCCC[C@H]2[C@H]1Cc1ccc(O)cc13 [LEVORPHANOL] | 1.03 | Kp [2]: 15.6; KT [3]: 20.8
C[C@H]1[C@@H]2Cc3ccc(O)cc3[C@]1(C)CCN2C [METAZOCINE] | 0.47 | 
